The values that follow come from ChEMBL document CHEMBL1201862, “PubChem BioAssay data set” (2004).

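Exposure lasted 48 hours, with cells grown in 96-well plates and compounds tested at five concentrations. GI50 marks 50% less growth.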 The source made the active and inactive calls. Rule as the data show it: active = GI50 up to about 1.1 µM and inactive = higher. Bounds are passed on as bounds.

Some test systems named below: EKVX; HL-60; HOP-62; HOP-92; Hs-578T; IGROV-1; K562; KM12; M14; MCF7; Malme-3M; NCI-H226; NCI/ADR-RES; PC-3; RXF 393; SF-268; SK-MEL-28; SK-MEL-2; SK-MEL-5; SR.
Experiment in all cases: inhibition of tumour cell growth, NCI panel, 48 h

As for `COc1ccc2c3c1OC1C4(CCC5C(C2)N(CC2CC2)CCC351)OCCO4` (stereo not given), the GI50 in the assay on EKVX, with HL-60, in the assay on HOP-62, with HOP-92, with Hs-578T and in the assay on IGROV-1 was > 100 µM (inactive) in each case. The GI50 in the assay on K562, in the assay with KM12, in the assay with M14, in the assay with MCF7, in the assay with Malme-3M and with NCI-H226 was > 100 µM (inactive) throughout. Moreover, the GI50 in the assay on NCI/ADR-RES, with PC-3, in the assay with RXF 393, with SF-268, in the assay on SK-MEL-28 and in the assay on SK-MEL-2 was > 100 µM (inactive) each time. The GI50 with SK-MEL-5 and in the assay with SR was > 100 µM (inactive) in each case.

Consider `COc1ccc(-c2ncn(C[Si](C)(C)C)c2-c2ccc(OC)cc2)cc1`, for which the GI50 is 3.13 µM (inactive) in the assay with EKVX; 1.72 µM (inactive) in the assay with HL-60; 12.6 µM (inactive) with HOP-62; 4.7 µM (inactive) with HOP-92; 12.5 µM (inactive) in the assay with Hs-578T; 6.21 µM (inactive) in the assay on IGROV-1. Also, the GI50 in the assay with K562 was 0.472 µM (active); with KM12, 4.92 µM (inactive); in the assay with M14 it was 3.59 µM (inactive); in the assay on MCF7, 8.59 µM (inactive); in the assay on Malme-3M it was 10.4 µM (inactive); in the assay on NCI-H226 it was 4.8 µM (inactive). In addition, the GI50 in the assay with NCI/ADR-RES was 5.08 µM (inactive); with PC-3, 4.63 µM (inactive); in the assay with RXF 393 it was 6.25 µM (inactive); with SF-268, 12.1 µM (inactive); in the assay with SK-MEL-28, 2.33 µM (inactive); in the assay with SK-MEL-2 it was 7.08 µM (inactive). Besides, the GI50 in the assay on SK-MEL-5 is 2.54 µM (inactive); in the assay on SR it was 6.19 µM (inactive).

Consider `CCOc1ccc(NCC2CC/C(=C\C=C\c3ccccc3)C2=O)cc1` (stereo not given), for which the GI50 is 37.3 µM (inactive) with EKVX; 17.8 µM (inactive) in the assay on HL-60; 29.9 µM (inactive) with HOP-62; 16.1 µM (inactive) in the assay on HOP-92; 29 µM (inactive) with Hs-578T; 12.5 µM (inactive) in the assay on IGROV-1. For the same compound, the GI50 with K562 is 3.61 µM (inactive); with KM12, 6.07 µM (inactive); in the assay on M14, 13.7 µM (inactive); in the assay on MCF7 it was 3.18 µM (inactive); in the assay with Malme-3M, 22 µM (inactive); in the assay with NCI-H226, 44.7 µM (inactive). The GI50 is 25.7 µM (inactive) with NCI/ADR-RES; 23.6 µM (inactive) in the assay with PC-3; 16.1 µM (inactive) in the assay with RXF 393; 16.4 µM (inactive) with SF-268; 16.4 µM (inactive) in the assay with SK-MEL-28; > 100 µM (inactive) in the assay on SK-MEL-2. Besides, the values for the GI50 in the assay with SK-MEL-5 and in the assay on SR were 16 µM (inactive) and 4 µM (inactive), respectively.

As for `CCN1CCC(CNC(=O)c2ccc(N)cc2)N1CC` (stereo not given), the GI50 with EKVX, with HL-60, with HOP-62, in the assay on HOP-92, in the assay with Hs-578T and in the assay on IGROV-1 was > 100 µM (inactive) throughout. The GI50 in the assay on K562, in the assay on KM12, in the assay with M14, with MCF7, with Malme-3M and in the assay on NCI-H226 was > 100 µM (inactive) throughout. For the same compound, the GI50 in the assay with NCI/ADR-RES, in the assay on PC-3, in the assay with RXF 393, in the assay on SF-268, with SK-MEL-28 and in the assay with SK-MEL-2 was > 100 µM (inactive) in each case. The GI50 in the assay with SK-MEL-5 and in the assay on SR was > 100 µM (inactive) throughout.

Regarding `Cc1cc(SCC(=O)c2ccc(Br)cc2)cc(C)[o+]1`, the GI50 in the assay on EKVX is 12.4 µM (inactive); with HL-60, 13.5 µM (inactive); in the assay on HOP-62, 36.8 µM (inactive); in the assay on HOP-92, 22.7 µM (inactive); in the assay on Hs-578T, 47.6 µM (inactive); in the assay on IGROV-1, 37.4 µM (inactive). Besides, the GI50 in the assay on K562 is 24.9 µM (inactive); in the assay with KM12, 24.4 µM (inactive); in the assay with M14 it was 26.5 µM (inactive); in the assay on MCF7, 19.3 µM (inactive); in the assay with Malme-3M, 30.9 µM (inactive); in the assay with NCI-H226 it was 31.3 µM (inactive). In addition, the GI50 is 29.8 µM (inactive) with NCI/ADR-RES; 29.4 µM (inactive) in the assay with PC-3; 28.6 µM (inactive) in the assay with RXF 393; 47.6 µM (inactive) with SF-268; 13.8 µM (inactive) in the assay on SK-MEL-28; 30.8 µM (inactive) with SK-MEL-2. For the same compound, the GI50 in the assay on SK-MEL-5 was 18 µM (inactive); in the assay on SR, 22.8 µM (inactive).

Take `C=CC1(O)CCCC=C1COCc1ccccc1` (stereo not given): the GI50 with EKVX is > 100 µM (inactive); in the assay on HL-60, 27.4 µM (inactive); with HOP-62 it was > 100 µM (inactive); in the assay on HOP-92 it was 52 µM (inactive); in the assay with Hs-578T it was > 100 µM (inactive); with IGROV-1, 16.6 µM (inactive). Moreover, the GI50 is 32.2 µM (inactive) in the assay on K562; 50.2 µM (inactive) in the assay with KM12; > 100 µM (inactive) with M14; > 100 µM (inactive) with MCF7; > 100 µM (inactive) in the assay on Malme-3M; > 100 µM (inactive) in the assay on NCI-H226. Further, the GI50 in the assay on NCI/ADR-RES was > 100 µM (inactive); in the assay on PC-3, 67.8 µM (inactive); in the assay with RXF 393, > 100 µM (inactive); in the assay with SF-268, 67 µM (inactive); in the assay with SK-MEL-28, 71 µM (inactive); with SK-MEL-2 it was > 100 µM (inactive). For the same compound, the GI50 in the assay on SK-MEL-5 is 52.6 µM (inactive); in the assay on SR, 24.8 µM (inactive).

For `CCCCc1ccc(Nc2nc(Cl)c3ccn(C4CC(Oc5ccc(C)cc5)C(COc5ccc(C)cc5)O4)c3n2)cc1` (stereo not given), the GI50 is 28.6 µM (inactive) with EKVX; > 46.5 µM (inactive) with HL-60; > 100 µM (inactive) with HOP-62; > 46.5 µM (inactive) in the assay on HOP-92; > 100 µM (inactive) in the assay on Hs-578T; 22.9 µM (inactive) with IGROV-1. Further, the GI50 was > 46.5 µM (inactive) with K562; > 46.5 µM (inactive) in the assay on KM12; > 46.5 µM (inactive) with M14; > 46.5 µM (inactive) with MCF7; 26.7 µM (inactive) in the assay with Malme-3M; > 46.5 µM (inactive) with NCI-H226. Further, the GI50 in the assay on NCI/ADR-RES is > 46.5 µM (inactive); in the assay on PC-3 it was > 100 µM (inactive); in the assay with RXF 393 it was > 46.5 µM (inactive); in the assay with SF-268, > 100 µM (inactive); in the assay on SK-MEL-28, > 100 µM (inactive); with SK-MEL-2 it was > 46.5 µM (inactive). Moreover, the GI50 in the assay with SK-MEL-5 was > 46.5 µM (inactive); in the assay with SR it was > 10 µM (inactive).

For `CO[C@@]12[C@H](COC(N)=O)C3=C(C(=O)C(C)=C(N)C3=O)N1C[C@H]1[C@@H]2N1C` (stereo not given in full) [PORFIROMYCIN], the GI50 with EKVX was 12.3 µM (inactive); in the assay with HL-60 it was 0.34 µM (active); in the assay with HOP-62, 0.291 µM (active); in the assay on HOP-92, 5.43 µM (inactive); in the assay with Hs-578T, 16.6 µM (inactive); in the assay on IGROV-1, 5.62 µM (inactive). In addition, the GI50 is 7.5 µM (inactive) in the assay on K562; 6.97 µM (inactive) in the assay with KM12; 0.65 µM (active) in the assay with M14; 0.714 µM (active) in the assay with MCF7; 4.1 µM (inactive) in the assay on Malme-3M; 8.69 µM (inactive) with NCI-H226. Further, the GI50 was 29.4 µM (inactive) with NCI/ADR-RES; 12.6 µM (inactive) in the assay with PC-3; 6.31 µM (inactive) in the assay with RXF 393; 3.46 µM (inactive) with SF-268; 12.3 µM (inactive) in the assay with SK-MEL-28; 13.5 µM (inactive) with SK-MEL-2. Further, the GI50 with SK-MEL-5 is 1.8 µM (inactive); in the assay with SR, 0.409 µM (active).

With `COc1cc(C[C@H]2c3cc(OC)c(OC)cc3CCN2C)c(Oc2cc3c(cc2OC)-c2c(OC)c(OC)cc4c2[C@H](C3)N(C)CC4)cc1OC` [THALICARPINE], the GI50 in the assay on EKVX was 12.9 µM (inactive); with HL-60, 2.84 µM (inactive); in the assay with HOP-62, 10.6 µM (inactive); in the assay on HOP-92 it was 1.78 µM (inactive); in the assay with Hs-578T it was 2.99 µM (inactive); in the assay with IGROV-1 it was 10.8 µM (inactive). Moreover, the GI50 with K562 is 4.88 µM (inactive); in the assay with KM12 it was 5.18 µM (inactive); with M14, 1.52 µM (inactive); with MCF7, 12.2 µM (inactive); with Malme-3M it was 9.44 µM (inactive); in the assay on NCI-H226, 6.58 µM (inactive). The GI50 is 11.3 µM (inactive) in the assay with NCI/ADR-RES; 4.93 µM (inactive) with PC-3; 3.05 µM (inactive) in the assay with RXF 393; 9.98 µM (inactive) in the assay with SF-268; 4.02 µM (inactive) with SK-MEL-28; 10 µM (inactive) with SK-MEL-2. For the same compound, the GI50 in the assay on SK-MEL-5 was 3.28 µM (inactive); in the assay on SR, 5.08 µM (inactive).
